Legend:
HL-60 = assay: Biological evaluation in vitro on HL-60 cell line; format: functional, Homo sapiens; design: reference not given here
Keratinocyte = assay: Biological evaluation in vitro on keratinocytes; format: functional; design: reference not given here
MG-63 = assay: Biological evaluation in vitro on MG-63 cell line; format: functional, Homo sapiens; design: reference not given here
MCF7 = assay: Biological evaluation in vitro on MCF-7 cell line; format: functional, Homo sapiens; design: reference not given here
Mus musculus = assay: The in vivo effect was tested in vitamin D-deplete normal NMRI mice by measuring calcium levels in serum.; format: functional; design: reference not given here
[1] = target: T1, Vitamin D3 receptor (Sus scrofa) (UniProt A3RGC1); assay: Inhibition of 1-alpha,25(OH)2 D3 binding to pig intestinal mucosa Vitamin D3 receptor (VDR); format: tissue-based
T1 sequence (whole entry): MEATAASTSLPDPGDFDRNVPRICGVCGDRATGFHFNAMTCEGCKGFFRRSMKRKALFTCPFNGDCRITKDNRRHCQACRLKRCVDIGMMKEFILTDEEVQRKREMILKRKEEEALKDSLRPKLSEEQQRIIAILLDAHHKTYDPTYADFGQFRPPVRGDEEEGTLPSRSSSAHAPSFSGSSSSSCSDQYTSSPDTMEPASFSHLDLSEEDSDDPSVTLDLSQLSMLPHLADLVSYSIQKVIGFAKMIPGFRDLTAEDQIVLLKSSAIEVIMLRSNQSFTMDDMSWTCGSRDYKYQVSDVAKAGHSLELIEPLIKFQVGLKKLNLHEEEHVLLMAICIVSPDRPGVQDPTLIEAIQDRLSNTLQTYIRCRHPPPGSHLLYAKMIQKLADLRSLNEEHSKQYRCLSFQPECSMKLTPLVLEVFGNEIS

Relative affinity [1]	Compound	Biological evaluation (HL-60)	Biological evaluation (Keratinocyte)	Biological evaluation (MG-63)	Biological evaluation (MCF7)	Biological evaluation (Mus musculus)
0.9	C=C1C(=CC=C[C@H]2CCC[C@H]([C@@H](C)CCCC(C)(C)O)C2(C)C)C[C@@H](O)C[C@@H]1O	1	8	1	0	<0.1
1	C=C1C(=CC=C[C@H]2CCC[C@H]([C@H](C)CCCC(C)(C)O)C2(C)C)C[C@@H](O)C[C@@H]1O	2	30	3	1	<0.1
60	C=C1C(=CC=C[C@H]2CCC[C@H]([C@H](C)CCCCC(O)(CC)CC)C2(C)C)C[C@@H](O)C[C@@H]1O	600	1500	800	3000	20
125	C=C1C(=CC=C[C@@H]2CCC[C@H]([C@H](C)CCCC(C)(C)O)C2(C)C)C[C@@H](O)C[C@@H]1O	90	300	300	300	4
0.5	C=C1C(=CC=C[C@@H]2CCC[C@H]([C@@H](C)CCCC(C)(C)O)C2(C)C)C[C@@H](O)C[C@@H]1O	1	8	1	0	0.1
